For data set [1] the following is noted: cited from earlier work.
Data set [2] in a line: Particle size distribution analysis of tolbutamide particles. The data set is classed as physicochemical. An excerpt: In the embodiments 1 to 4, the usage amount of the bulk drug of tolbutamide is in a range of 2 to 5 gram, and the other operation conditions, e.g. the pressures and the temperature of mixing, the temperatures before and after the expansion and the particle sizes of the tolbutamide micro-particles, are listed in Table 1 below.
In the embodiments 5 to 8, the usage amount of the bulk drug of tolbutamide is in a range of 2 to 5 gram, and the other operation conditions, e.g. the pressures and the temperature of mixing, the temperatures before and after the expansion and the particle sizes of the tolbutamide micro-particles, are listed in Table 2 below.
FIG. 1A is the schematic diagram showing the distribution and the cumulative distribution of the particle sizes for the bulk drug of tolbutamide, wherein the average particle size is 89.4 micron. FIG. 1B is the schematic diagram showing the distribution and the cumulative distribution of the particle sizes for the tolbutamide micro-particles obtained by using the method of the rapid expansion of supercritical solution (RESS) in the fourth embodiment. FIG. 1C is the schematic diagram showing the distribution and the cumulative distribution of the particle sizes for the tolbutamide micro-particles obtained by using the method of RESS with solid cosolvent (RESS-SC) in the eighth embodiment. […]

Here are results for two compounds from patent publication US20120121707A1, “Tolbutamide Particle And Preparing Method Thereof And Method Of Reducing A Blood Glucose” (National Taiwan University, priority 2010, published 2012).

Each structure is given as a SMILES string.

Take `CCCCNC(=O)NS(=O)(=O)c1ccc(C)cc1` [tolbutamide]: the “solubility in ethanol and chloroform” value in data set [1] (ethanol and chloroform) is “soluble in ethanol and chloroform”. Moreover, the solubility in water entry in data set [1] (water) is recorded as “almost insoluble in the water”.

As for `CCCCNC(=O)NS(=O)(=O)c1ccc(C)cc1` [Bulk drug of tolbutamide, tolbutamide], the average particle size is listed as 89.4 μm in data set [2] (Table 1, RESS method, supercritical CO2, no cosolvent, bulk drug as comparison) and 89.4 micron in data set [2] (text on FIGS. 1A-1D).
